Source: patent US9770452B2, “Quinoxaline derivatives as GPR6 modulators” (Takeda Pharmaceutical Company Limited, priority 2012, dated 2017)
pIC50: −log10 of the molar value. Structures can show the parent of a compound that is named as a salt. Where two headings read alike, the source gives them in different places.

Target: T1, GPR6 receptor (Homo sapiens, UniProt P46095)
T1 construct: expressed in transfected cells
Assay: Inhibition of cAMP Activity of GPR6 In Vitro Assay (CHO-K1 cells, HTRF cAMP)
Type: cell-based
How it was run: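 CHO-K1 cells with doxycycline-induced (1 μg/ml, 20 h) GPR6 treated with compounds 45 min at 37 °C in Ringer's buffer (pH 7.4) with 0.5% fatty acid free BSA. Constitutive cAMP measured by Lance HTRF Ultra cAMP; IC50 from four-parameter logistic fit.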

[1] = compounds of Compound Table 1, inhibition of constitutive cAMP activity of GPR6 expressed in CHO-K1 cells, approximate IC50, read-out: IC50

T1 sequence (P46095 whole entry): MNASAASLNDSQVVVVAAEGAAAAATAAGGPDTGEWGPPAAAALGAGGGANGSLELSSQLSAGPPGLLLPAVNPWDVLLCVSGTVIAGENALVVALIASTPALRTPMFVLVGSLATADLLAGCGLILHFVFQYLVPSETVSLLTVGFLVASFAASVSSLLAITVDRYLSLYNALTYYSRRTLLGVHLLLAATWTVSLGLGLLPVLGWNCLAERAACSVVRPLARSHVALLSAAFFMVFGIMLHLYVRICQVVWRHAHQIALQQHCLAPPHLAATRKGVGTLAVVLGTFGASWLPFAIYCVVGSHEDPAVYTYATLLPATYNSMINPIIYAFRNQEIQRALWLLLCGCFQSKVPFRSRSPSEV

3-(4-(2-fluoro-4-methoxybenzyl)piperidin-1-yl)-N-isopropylpyrazino[2,3-d]pyridazin-2-amine, 2,2,2-trifluoroacetic acid salt [Cpd 642]
pIC50 [1]: 7.27

N-cyclopropyl-3-(4-((4-(trifluoromethyl)phenyl)sulfonyl)piperazin-1-yl)pyrido[3,4-b]pyrazin-2-amine, 2,2,2-trifluoroacetic acid salt [Cpd 302]
pIC50 [1]: 6.47

COCCCNc1nc2ccccc2nc1N1CCN(Cc2cc(Cl)ccc2Cl)CC1 [Cpd 66, 3-(4-(2,5-dichlorobenzyl)piperazin-1-yl)-N-(3-methoxypropyl)quinoxalin-2-amine]
pIC50 [1]: 5.71

Clc1cc(CN2CCN(c3nc4ccccc4nc3NC3CC3)CC2)c(Cl)s1 [Cpd 99, N-cyclopropyl-3-(4-((2,5-dichlorothiophen-3-yl)methyl)piperazin-1-yl)quinoxalin-2-amine, 2,2,2-trifluoroacetic acid salt]
pIC50 [1]: 5.22

3-fluoro-4-((1-(3-(isopropylamino)pyrazino[2,3-d]pyridazin-2-yl)piperidin-4-yl)oxy)benzonitrile, 2,2,2-trifluoroacetic acid salt [Cpd 639]
pIC50 [1]: 7.52

N-cyclopropyl-3-(4-((2,4-difluorophenyl)difluoromethyl)piperidin-1-yl)pyrido[3,4-b]pyrazin-2-amine [Cpd 545]
pIC50 [1]: 7.35

2-(cyclopropylamino)-3-(4-(2,4-difluorobenzyl)piperazin-1-yl)pyrido[3,4-b]pyrazine-5-carbonitrile, 2,2,2-trifluoroacetic acid salt [Cpd 612]
pIC50 [1]: 6.94

3-(4-(2,4-difluorobenzyl)piperazin-1-yl)-2-(isopropylamino)-N,N-dimethylpyrido[3,4-b]pyrazine-7-carboxamide, 2,2,2-trifluoroacetic acid salt [Cpd 634]
pIC50 [1]: 8.22

N-cyclopropyl-3-(4-(4-fluorobenzyl)piperidin-1-yl)pyrido[3,4-b]pyrazin-2-amine, 2,2,2-trifluoroacetic acid salt [Cpd 421]
pIC50 [1]: 5.08

(4-(2-(cyclopropylamino)pyrido[3,4-b]pyrazin-3-yl)piperazin-1-yl)(4-(difluoromethyl)phenyl)methanone, 2,2,2-trifluoroacetic acid salt [Cpd 289]
pIC50 [1]: 6.57

azetidin-1-yl(2-(cyclopropylamino)-3-(4-(2-fluoro-4-methoxyphenoxy)piperidin-1-yl)pyrido[3,4-b]pyrazin-5-yl)methanone, 2,2,2-trifluoroacetic acid salt [Cpd 610]
pIC50 [1]: 5.80

N-ethyl-3-(4-(2-fluoro-4-methoxyphenoxy)piperidin-1-yl)pyrido[3,4-b]pyrazin-2-amine, 2,2,2-trifluoroacetic acid salt [Cpd 622]
pIC50 [1]: 7.54

CC(C)Nc1nc2ccccc2nc1N1CCN(Cc2cc(Cl)ccc2Cl)CC1 [Cpd 111, 3-(4-(2,5-dichlorobenzyl)piperazin-1-yl)-N-isopropylquinoxalin-2-amine, 2,2,2-trifluoroacetic acid salt]
pIC50 [1]: 5.48

COc1ccc(Br)c(C(=O)N2CCN(c3nc4ccccc4nc3NC3CC3)CC2)c1 [Cpd 85, (2-bromo-5-methoxyphenyl)(4-(3-(cyclopropylamino)quinoxalin-2-yl)piperazin-1-yl)methanone, 2,2,2-trifluoroacetic acid salt]
pIC50 [1]: 5.12

3-(4-(3-bromo-4-fluorobenzoyl)piperazin-1-yl)-2-(cyclopropylamino)quinoxaline-6-carbonitrile, 2,2,2-trifluoroacetic acid salt [Cpd 256]
pIC50 [1]: 6.42

3-(4-((5-chloro-2-fluorophenyl)difluoromethyl)piperidin-1-yl)-N-cyclopropyl-5-methylpyrido[3,4-b]pyrazin-2-amine [Cpd 536]
pIC50 [1]: 6.03

CC(C)CNc1nc2ccccc2nc1N1CCN(Cc2cc(Cl)ccc2Cl)CC1 [Cpd 110, 3-(4-(2,5-dichlorobenzyl)piperazin-1-yl)-N-isobutylquinoxalin-2-amine, 2,2,2-trifluoroacetic acid salt]
pIC50 [1]: 5.22

Clc1ccc(Cl)c(CN2CCN(c3nc4ccc(Br)cc4nc3NC3CC3)CC2)c1 [Cpd 45, 7-bromo-N-cyclopropyl-3-(4-(2,5-dichlorobenzyl)piperazin-1-yl)quinoxalin-2-amine, 2,2,2-trifluoroacetic acid salt]
pIC50 [1]: 5.63

3-(4-(5-cyano-2-(dimethylcarbamoyl)benzoyl)piperidin-1-yl)-2-(cyclopropylamino)-N,N-dimethylpyrido[3,4-b]pyrazine-7-carboxamide [Cpd 596]
pIC50 [1]: 7.59

3-(4-(4-chloro-3-methylbenzyl)piperazin-1-yl)-N-cyclopropylquinoxalin-2-amine, 2,2,2-trifluoroacetic acid salt [Cpd 194]
pIC50 [1]: 5.44

N-cyclopropyl-2-(4-(2,4-difluorobenzyl)piperidin-1-yl)pyrido[3,4-b]pyrazin-3-amine, 2,2,2-trifluoroacetic acid salt [Cpd 427]
pIC50 [1]: 7.11

N-cyclopropyl-3-(4-(2,4-difluorobenzyl)piperidin-1-yl)-5-methylpyrido[3,4-b]pyrazin-2-amine, 2,2,2-trifluoroacetic acid salt [Cpd 493]
pIC50 [1]: 8.05

Clc1ccc(Cl)c(CN2CCN(c3nc4ccccc4nc3NCC3CC3)CC2)c1 [Cpd 42, N-(cyclopropylmethyl)-3-(4-(2,5-dichlorobenzyl)piperazin-1-yl)quinoxalin-2-amine, 2,2,2-trifluoroacetic acid salt]
pIC50 [1]: 5.50

3-(4-((2,4-difluorophenyl)fluoromethyl)piperidin-1-yl)-N-(2-methoxyethyl)pyrido[3,4-b]pyrazin-2-amine, 2,2,2-trifluoroacetic acid salt [Cpd 520]
pIC50 [1]: 7.52

2-(cyclopropylamino)-3-(4-(2-fluoro-4-methoxyphenoxy)piperidin-1-yl)pyrido[3,4-b]pyrazine-5-carbonitrile, 2,2,2-trifluoroacetic acid salt [Cpd 605]
pIC50 [1]: 7.44

7-chloro-N-cyclopropyl-3-(4-(2,4-difluorophenoxy)piperidin-1-yl)pyrido[3,4-b]pyrazin-2-amine, 2,2,2-trifluoroacetic acid salt [Cpd 476]
pIC50 [1]: 7.82

O=S(=O)(c1ccccc1)N1CCN(c2nc3ccccc3nc2NC2CC2)CC1 [Cpd 105, N-cyclopropyl-3-(4-(phenylsulfonyl)piperazin-1-yl)quinoxalin-2-amine]
pIC50 [1]: 5.25

COc1ccc(OC2CCN(c3nc4c(N5CCOCC5)nccc4nc3NC3CC3)CC2)c(F)c1 [Cpd 606, N-cyclopropyl-3-(4-(2-fluoro-4-methoxyphenoxy)piperidin-1-yl)-5-morpholinopyrido[3,4-b]pyrazin-2-amine, 2,2,2-trifluoroacetic acid salt]
pIC50: 6.14

N-cyclobutyl-2-(4-(2,4-difluorophenoxy)piperidin-1-yl)pyrido[3,4-b]pyrazin-3-amine [Cpd 657]
pIC50 [1]: 8.10

(4-chlorophenyl)(1-(2-(cyclopropylamino)pyrido[3,4-b]pyrazin-3-yl)piperidin-4-yl)methanone, 2,2,2-trifluoroacetic acid salt [Cpd 430]
pIC50 [1]: 5.96

O=C(c1ccsc1Cl)C1CCN(c2nc3cnccc3nc2NC2CC2)CC1 [Cpd 572, (2-chlorothiophen-3-yl)(1-(2-(cyclopropylamino)pyrido[3,4-b]pyrazin-3-yl)piperidin-4-yl)methanone, hydrogen chloride salt]
pIC50 [1]: 7.68

(2-bromopyridin-3-yl)(1-(2-(cyclopropylamino)pyrido[3,4-b]pyrazin-3-yl)piperidin-4-yl)methanone, 2,2,2-trifluoroacetic acid salt [Cpd 586]
pIC50 [1]: 5.64

3-(4-(4-chloro-2-fluorophenoxy)piperidin-1-yl)-2-(cyclopropylamino)quinoxaline-6-carbonitrile, 2,2,2-trifluoroacetic acid salt [Cpd 465]
pIC50 [1]: 7.96

2-(4-(4-chloro-2-fluorophenoxy)piperidin-1-yl)-3-(isopropylamino)quinoxaline-6-carbonitrile, hydrogen chloride salt [Cpd 626]
pIC50 [1]: 7.05

(S)—N-cyclopropyl-3-(4-((2,4-difluorophenyl)fluoromethyl)piperidin-1-yl)-5-methylpyrido[3,4-b]pyrazin-2-amine, 2,2,2-trifluoroacetic acid salt [Cpd 516]
pIC50 [1]: 7.54

(R)—N-cyclopropyl-3-(4-((2,4-difluorophenyl)fluoromethyl)piperidin-1-yl)pyrazino[2,3-d]pyridazin-2-amine, 2,2,2-trifluoroacetic acid salt [Cpd 599]
pIC50 [1]: 8.30

2-(cyclopropylamino)-3-(4-(2-fluoro-4-methoxybenzyl)piperazin-1-yl)-N,N-dimethylpyrido[3,4-b]pyrazine-7-carboxamide, 2,2,2-trifluoroacetic acid salt [Cpd 614]
pIC50 [1]: 7.18

2-(4-(2,4-difluorobenzyl)piperidin-1-yl)-N-(2,2-difluoroethyl)pyrido[3,4-b]pyrazin-3-amine [Cpd 428]
pIC50 [1]: 7.70

Clc1cccc(CN2CCN(c3nc4ccccc4nc3Nc3ccc(Br)cc3)CC2)c1 [Cpd 21, N-(4-bromophenyl)-3-(4-(3-chlorobenzyl)piperazin-1-yl)quinoxalin-2-amine, 2,2,2-trifluoroacetic acid salt]
pIC50 [1]: 5.52

3-(4-(2,5-dichlorobenzyl)piperazin-1-yl)-N-(2-ethoxyethyl)quinoxalin-2-amine, 2,2,2-trifluoroacetic acid salt [Cpd 167]
pIC50 [1]: 5.48

3-(4-(2,4-difluorobenzyl)piperidin-1-yl)-N-(2-methoxyethyl)pyrido[3,4-b]pyrazin-2-amine, 2,2,2-trifluoroacetic acid salt [Cpd 519]
pIC50 [1]: 6.60
